Results published in paper PMC8708821, “Comprehensive Analysis and Biological Characterization of Venom Components from Solitary Scoliid Wasp Campsomeriella annulata annulata” (Toxins, 2021).
Where two headings read alike, the source gives them in different places. Marks after values point to notes of the source that are not given here. No end group written: not given here.

How the values were obtained:
Vero cells = experiment: Toxicity on cell integrity, crystal violet, Vero cells; format: cell-based, Cercopithecus aethiops (African green monkey); details: for cytotoxicity in Vero cells: 0.1, 1 and 10 μmol·L−1, 1, 6, 24 and 48 h, vs untreated cells, n = 3 in triplicate
Description: (§1) The cytotoxic effects of α-campsomerin and β-campsomerin were determined by the staining of attached cells with crystal violet dye, according to the literature. In a 96-well plate (Nest Biotechnology, Rahway, USA), PC12 and Vero cells were put at 2.0 × 10^4 and 1.0 × 10^4 cells/well, respectively. Cells were treated with different concentrations (0.1 to 10 µmol·L^−1) of peptides in 0.10 mL. The plate was incubated for 1, 6, 24, and 48 h at 37 °C. There were control and DMSO groups for each concentration and time course tested, representing untreated cells (just one equal volume of culture medium) and cells treated with DMSO (5%; v/v) diluted in the medium culture, respectively. The media was then aspirated, and the cells were stained with a 0.5 percent crystal violet staining solution (0.5%; m/v), washed, and air-dried. Afterwards, methanol (200 μL) was added, and the absorbance measured at 570 nm using a SpectraMax reader (Molecular Devices, CA, USA). Data were obtained from three independent experiments in triplicate, and were expressed by percentage of cell viability, calculated using the control group as 100% of integrity.

PC12 cells [1] = experiment: Toxicity on cell integrity, crystal violet, PC12 cells; format: cell-based, rat
Description: as §1

PC12 cells [2] = experiment: Neuroprotective assay against H2O2-induced oxidative stress; format: cell-based, rat
Description: Initially, PC12 cells were seeded at 2 × 10^4 cells/well in a 96-well plate (Nest Biotechnology, Rahway, NJ, USA) for 24 h. To evaluate the neuroprotective effects of peptides, cells were pre-treated at 37 °C with α-campsomerin and β-campsomerin (0.1 to 20 µmol·L^−1), diluted in DMEM medium supplemented with antibiotics without fetal bovine serum for 4 h. […] Cells untreated with H2O2 represent control group in all experiments. Next, all groups were analyzed by the cell integrity.

[3] = target: T1, AChE from Electrophorus electricus (electric eel) Type VI-S (Electrophorus electricus, UniProt O42275); experiment: AChE activity, Ellman's technique; format: biochemical; details: positive control; mean ± SD, three independent experiments in triplicate
T1 construct: purchased Sigma-Aldrich Type VI-S
T1 sequence (O42275 24-633): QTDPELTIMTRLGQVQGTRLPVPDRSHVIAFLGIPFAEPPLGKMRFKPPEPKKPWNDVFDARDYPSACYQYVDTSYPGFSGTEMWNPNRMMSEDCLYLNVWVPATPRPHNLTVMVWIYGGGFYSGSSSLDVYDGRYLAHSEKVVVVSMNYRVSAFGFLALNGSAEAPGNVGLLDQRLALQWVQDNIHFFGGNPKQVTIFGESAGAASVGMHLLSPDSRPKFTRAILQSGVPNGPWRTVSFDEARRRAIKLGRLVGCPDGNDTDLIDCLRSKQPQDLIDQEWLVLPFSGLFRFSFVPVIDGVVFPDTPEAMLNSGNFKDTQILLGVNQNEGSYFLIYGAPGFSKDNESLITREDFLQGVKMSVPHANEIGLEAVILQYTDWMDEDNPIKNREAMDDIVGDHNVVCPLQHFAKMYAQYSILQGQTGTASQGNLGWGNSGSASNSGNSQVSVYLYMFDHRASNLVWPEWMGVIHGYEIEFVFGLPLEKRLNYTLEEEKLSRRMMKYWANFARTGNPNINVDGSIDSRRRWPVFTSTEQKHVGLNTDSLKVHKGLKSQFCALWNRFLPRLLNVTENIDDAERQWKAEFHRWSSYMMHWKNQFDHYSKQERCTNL
Description: The AChE activity was evaluated spectrophotometrically using Ellman’s technique, as previously reported by Harry et al., with slight modifications. Both peptides (20 μL) at varied concentrations (20, 10, 5, 1, and 0.1 µmol·L^−1), 10 μL of AChE (0.5 U·mL^−1) (Sigma, St. Louis, MO, USA) and 160 μL of 5,5-dithiobis-2-nitrobenzoic acid (DTNB, Ellman’s reagent) 0.33 mM (Sigma, St. Louis, MO, USA) in phosphate buffer (0.1 mo·L^−1, pH 8.0) were placed in triplicate in a microplate, and incubated at room temperature for 10 min after adding 10 μL of acetylthiocholine iodide (20 mmol·L^−1) (Sigma, St. Louis, MO, USA). The hydrolysis of acetylthiocholine iodide leads to production of acetic acid and thiocholine, which reacts with DTNB producing the anion 5-thio-2-nitrobenzoic acid, which was monitored at 412 nm during 20 min in microplate reader (BioTek Instruments, Inc., Winooski, VT, USA. Tetraethyl pyrophosphate (TEPP; Sigma, St. Louis, MO, USA) was used as a positive control. IAChE = [(Ac − As)/Ac] × 100, where Ac = absorbance for the control and As = absorbance for the sample was used to compute the percentage of inhibition (I) of AChE.

neuronal cell lines = details: previous study; neuronal cell integrity and mitochondrial metabolism; ref [28]; cited from earlier work
Text: The venom of solitary wasps is a rich source of neuroactive chemicals, including bradykinin-related peptides, which disrupt the synaptic transmission of the nAChR in the central nervous system of prey. Our group has studied the neuroprotective effects of natural peptides from solitary wasp venoms against the H2O2-induced oxidative stress in neuronal cell lines after different treatments for acute and chronic conditions.. This cell model, which promotes excessive ROS generation, with consequent neurotoxic effects, represents typical characte ...

mast cells [4] = experiment: Histamine-releasing activity; format: cell-based
Description: (§2) Antimicrobial, hemolytic, and histamine-releasing activities were measured as described previously. The microbial species used in this study were: Escherichia coli (NBRC 14237), Staphylococcus aureus (NBRC 12732), and Saccharomyces cerevisiae (NBRC 10217), which were purchased from the Biological Resource Center (BRC, Kisarazu, Japan), National Institute of Technology and Evaluation. The pI of peptides was calculated with IPC (http://isoelectric.org/index.html, accessed on 8 November 2021). The physicochemical properties were examined using HeliQuest (http://heliquest.ipmc.cnrs.fr/, accessed on 8 November 2021).

Hemolytic activity = format: cell-based
Description: as §2

[5] = tested on: Staphylococcus aureus (NBRC 12732); experiment: Antimicrobial activity (MIC), S. aureus; format: cell-based
Description: as §2

[6] = tested on: Saccharomyces cerevisiae (NBRC 10217); experiment: Antimicrobial activity (MIC), S. cerevisiae; format: cell-based
Description: as §2

[7] = tested on: Escherichia coli (NBRC 14237); experiment: Antimicrobial activity (MIC), E. coli; format: cell-based
Description: as §2

mast cells [8] = details: ref Shigeri et al. [34]; cited from earlier work
Text: Table 10 Antimicrobial, hemolytic, and histamine-releasing activities of annulatin and related peptides. | column: Histamine Releasing Activity at 10 μmol·L^−1 (%)

[9] = ref Shigeri et al. [34]; cited from earlier work
Text: Table 10 Antimicrobial, hemolytic, and histamine-releasing activities of annulatin and related peptides. | column: Hemolytic Activity (%) / at 10 μmol·L^−1

neprilysin (NEP) = experiment: Stability test: cleavage of peptide by NEP; format: in vitro ADME; details: human, isolated human neprilysin (NEP); peptide 30 µmol·L−1 incubated four hours at 37 °C with NEP (7.5 n); RP-HPLC C-18, UV 214 nm
Description: (§3) Both peptides (30 µmol·L^−1) were incubated for four hours at 37 °C with ACE and NEP (7.5 n). As a negative control, samples containing only synthetic peptides were employed. After incubation, samples were analyzed on a Shim-pack VP-ODS C-18 column (4.6 150 mm) utilizing reverse-phase chromatography on HPLC (Prominence, Shimadzu). Solvent A was 0.1% TFA in water (solvent A), and solvent B was acetonitrile plus solvent A (9:1). Over a 20-min period, separations were carried out at a flow rate of 1 mL/min with a 10–60 percent gradient of solvent B. Elution was always followed by an assessment of UV absorption (214 nm).

ACE I from rabbit lung = target: T2, ACE I from rabbit lung (Oryctolagus cuniculus, UniProt P12822); experiment: ACE catalytic activity inhibition (FRET substrate); format: biochemical; details: peptide 20, 30 and 50 μmol·L−1; FRET substrate Abz-FRK(Dnp)P-OH 2, 4, 8 μmol·L−1; 100 mmol·L−1 Tris-HCl, 50 mmol·L−1 NaCl, 10 μmol·L−1 ZnCl2, pH 7.0; 37 °C; 15 min; triplicate
T2 construct: The ACE I from rabbit lung; purchased Sigma-Aldrich; host or cells: rabbit lung
T2 sequence (P12822 34-1310): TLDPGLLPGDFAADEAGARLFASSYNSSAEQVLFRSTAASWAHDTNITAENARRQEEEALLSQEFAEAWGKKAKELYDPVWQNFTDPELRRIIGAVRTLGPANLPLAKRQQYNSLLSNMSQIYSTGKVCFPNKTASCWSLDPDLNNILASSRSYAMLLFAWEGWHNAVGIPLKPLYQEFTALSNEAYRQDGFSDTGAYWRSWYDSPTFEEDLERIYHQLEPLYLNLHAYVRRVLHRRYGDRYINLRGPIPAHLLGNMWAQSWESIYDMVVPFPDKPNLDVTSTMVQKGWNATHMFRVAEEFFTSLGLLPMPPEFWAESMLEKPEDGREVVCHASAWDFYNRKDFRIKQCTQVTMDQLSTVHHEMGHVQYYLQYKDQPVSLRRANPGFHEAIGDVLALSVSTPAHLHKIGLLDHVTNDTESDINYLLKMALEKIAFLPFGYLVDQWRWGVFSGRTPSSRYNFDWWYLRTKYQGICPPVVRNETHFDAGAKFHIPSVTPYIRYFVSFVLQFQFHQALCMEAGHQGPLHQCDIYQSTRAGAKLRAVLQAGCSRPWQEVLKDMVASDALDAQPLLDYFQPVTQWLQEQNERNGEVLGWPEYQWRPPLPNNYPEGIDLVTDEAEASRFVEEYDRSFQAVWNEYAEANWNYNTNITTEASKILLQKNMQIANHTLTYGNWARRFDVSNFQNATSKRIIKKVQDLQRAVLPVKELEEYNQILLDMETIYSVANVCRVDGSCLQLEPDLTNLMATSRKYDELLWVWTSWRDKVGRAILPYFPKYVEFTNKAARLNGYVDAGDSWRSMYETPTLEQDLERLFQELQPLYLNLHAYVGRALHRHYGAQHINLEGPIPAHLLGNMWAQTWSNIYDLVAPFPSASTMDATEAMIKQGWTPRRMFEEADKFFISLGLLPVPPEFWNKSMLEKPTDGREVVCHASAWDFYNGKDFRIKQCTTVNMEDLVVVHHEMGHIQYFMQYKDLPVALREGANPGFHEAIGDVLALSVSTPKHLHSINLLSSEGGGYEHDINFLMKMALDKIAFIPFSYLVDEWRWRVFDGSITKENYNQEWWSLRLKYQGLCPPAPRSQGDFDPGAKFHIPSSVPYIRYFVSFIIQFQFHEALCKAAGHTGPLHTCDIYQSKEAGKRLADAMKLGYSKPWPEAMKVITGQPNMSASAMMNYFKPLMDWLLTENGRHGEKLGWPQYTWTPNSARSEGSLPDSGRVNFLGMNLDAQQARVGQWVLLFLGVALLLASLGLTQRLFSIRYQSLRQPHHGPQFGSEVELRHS
Description: (§4) Experiments were performed using different concentrations of α-campsomerin and β-campsomerin with ACE and NEP, and their FRET substrates, FRK(Dnp)P-OH and Abz-RGFK (Dnp)-OH, respectively. The assays used 7.5 ng of both peptidases and the substrates were added in a 100 mmol·L^−1 Tris-HCl buffer containing 50 mmol·L^−1 NaCl, 10 μmol·L^−1 ZnCl2, pH 7.0 (for ACE assays) and Tris HCl 50 mmol·L^−1, pH 7.5 buffer (for NEP assays). All experiments were carried out at 37 °C and at a final volume of 100 µL Three FRETs substrate concentrations were used (2 μmol·L^−1, 4 μmol·L^−1 and 8 μmol·L^−1), and were incubated with three concentrations of both peptides (20 μmol·L^−1, 30 μmol·L^−1 and 50 μmol·L^−1). Controls without the peptides were also performed in all assays. The reactions were monitored for 15 min on fluorimeter (Victor 3—Perkin–Elmer) and the results were analyzed on GraFit 3.0 from Erithacus Software. All assays were performed in triplicate.

human neprilysin (NEP) = human neprilysin (NEP) (Homo sapiens, UniProt P08473); experiment: NEP catalytic activity inhibition (FRET substrate); format: biochemical; details: peptide 20, 30 and 50 μmol·L−1; FRET substrate Abz-RGFK(Dnp)-OH 2, 4, 8 μmol·L−1; Tris HCl 50 mmol·L−1 pH 7.5; 37 °C; 15 min; triplicate
Chain of human neprilysin (NEP) (P08473 whole entry): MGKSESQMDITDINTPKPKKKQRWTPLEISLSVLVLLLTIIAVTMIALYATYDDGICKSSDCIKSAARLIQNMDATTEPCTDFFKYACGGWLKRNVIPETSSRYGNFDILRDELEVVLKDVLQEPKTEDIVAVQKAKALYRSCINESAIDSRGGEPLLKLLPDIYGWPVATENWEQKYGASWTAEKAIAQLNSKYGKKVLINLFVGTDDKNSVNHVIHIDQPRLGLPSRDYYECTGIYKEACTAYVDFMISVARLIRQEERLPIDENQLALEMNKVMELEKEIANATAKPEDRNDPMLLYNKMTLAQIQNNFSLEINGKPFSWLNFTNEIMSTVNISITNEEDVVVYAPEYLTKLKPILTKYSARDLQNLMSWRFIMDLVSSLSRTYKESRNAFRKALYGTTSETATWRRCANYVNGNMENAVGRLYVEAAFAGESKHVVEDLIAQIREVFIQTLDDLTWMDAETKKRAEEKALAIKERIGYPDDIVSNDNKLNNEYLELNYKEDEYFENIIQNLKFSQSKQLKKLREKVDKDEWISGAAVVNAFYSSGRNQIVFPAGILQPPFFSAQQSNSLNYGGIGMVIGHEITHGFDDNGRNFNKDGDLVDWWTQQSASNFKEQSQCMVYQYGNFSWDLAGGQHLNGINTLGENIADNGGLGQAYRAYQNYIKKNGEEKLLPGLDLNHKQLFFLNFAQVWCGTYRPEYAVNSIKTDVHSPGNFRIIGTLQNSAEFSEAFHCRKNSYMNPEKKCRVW
Description: as §4

ACE I = tested on: T3, ACE I; experiment: Stability test: cleavage of peptide by ACE; format: in vitro ADME; details: rabbit, isolated ACE I from rabbit lung; peptide 30 µmol·L−1 incubated four hours at 37 °C with ACE (7.5 n); RP-HPLC C-18, UV 214 nm
T3 construct: The ACE I from rabbit lung; purchased Sigma-Aldrich; host or cells: rabbit lung
Description: as §3

[10] = DMSO 5% (v/v), after 6, 24 and 48 h, vs control group

C[S+](C)[O-] [DMSO, reference compound]
cell integrity in Vero cells, DMSO positive control (Vero cells; [10]): decreased cell integrity
cell integrity in PC12 cells, DMSO positive control (PC12 cells [1]; [10]): decreased cell integrity

OO [H2O2]
reduction of PC12 cell integrity by H2O2 (PC12 cells [2]; H2O2 0.5 mmol·L−1, 20 h of treatment): 60.5 ± 4.0%
H2O2 concentrations promoting PC12 cell death (PC12 cells [2]; tested 1–0.06 mmol·L−1, 20 h, dose-dependent): greater than 0.3 mmol·L−1

CCOP(=O)(OCC)OP(=O)(OCC)OCC [TEPP, tetraethyl pyrophosphate]
AChE inhibition percentage [3]: 76.20 ± 1.42%

DYVTVKGFSPLRKA [β-scoliidine]
neuroprotective effects against H2O2-induced neurotoxicity in prolonged therapy (neuronal cell lines): showed neuroprotective effects

ISEALKSIIVG-NH2 [Annulatin]
Histamine Releasing Activity at 10 μmol·L−1 (%) (mast cells [4]): 33.0%
Hemolytic Activity (%) at 12.5 μmol·L−1 (Hemolytic activity): 15.4%
MIC S. aureus (NBRC 12732) [5]: Negative
MIC S. cerevisiae (NBRC 10217) [6]: Negative
MIC E. coli (NBRC 14237) [7]: Negative

Mastoparan
Histamine Releasing Activity at 10 μmol·L−1 (%) (mast cells [8]): 31.1 ^b %
Hemolytic Activity (%) at 10 μmol·L−1 [9]: 13.5 ^b %

Melittin: honeybee hemolytic peptide
Histamine Releasing Activity at 10 μmol·L−1 (%) (mast cells [8]): 64.3 ^b %
Hemolytic Activity (%) at 10 μmol·L−1 [9]: 100.0 ^b %

PRLRRLTGLSPLR [α-campsomerin]
cytotoxicity in Vero cells (Vero cells): no significant cytotoxicity
metabolised at 4 h, 30 µmol·L−1 (neprilysin (NEP)): < 0.01%
Inhibition (%) ACE (ACE I from rabbit lung): <0.01%
Inhibition (%) NEP (human neprilysin (NEP)): <0.01%
metabolised at 4 h, 30 µmol·L−1 (ACE I): < 0.01%
PC12 cell integrity after 6 h of treatment (PC12 cells [1]; all concentrations tested (0.1, 1, 10 μmol·L−1), 6 h): reduced cell integrity

PRLRRLTGLSPLRAP [β-campsomerin]
cytotoxicity in Vero cells (Vero cells): no significant cytotoxicity
metabolised at 4 h, 30 µmol·L−1 (neprilysin (NEP)): < 0.01%
Inhibition (%) ACE (ACE I from rabbit lung): <0.01%
Inhibition (%) NEP (human neprilysin (NEP)): <0.01%
metabolised at 4 h, 30 µmol·L−1 (ACE I): < 0.01%
toxicity in PC12 cells under the conditions tested (discussion) (PC12 cells [1]; 0.1 to 10 µmol·L−1, up to 48 h): not toxic
